Laboratory results from ChEMBL document CHEMBL1157539, “Thousands of chemical starting points for antimalarial lead identification” (Nature, 2010).

Test system: Plasmodium falciparum
Assay: GSK_TCMDC: Inhibition of Plasmodium falciparum 3D7 in whole erythrocytes, using parasite LDH activity as an index of growth.
Format: functional, organism-based

SMILES	XC50 (Plasmodium falciparum, 3D7) [nM]	XC50 [nM]
CC(Cc1ccc(NC(=O)c2ccc(CNCc3ccccc3)cc2)cc1)N(CCc1cccc(Cl)c1)C(=O)OC(C)(C)C (configuration not stated)	974	
COc1cccc(CN2CCC(CCOC(c3ccccc3)c3ccccc3)CC2)c1O	730	
Cc1ccc2nc(N(CCCn3ccnc3)C(=O)C=Cc3cccs3)sc2c1	1390	
c1ccc(CCNc2ccnc(Nc3ccc4cn[nH]c4c3)n2)cc1	467	
Cc1[nH]c(C)c(-c2ccc(OCc3cc(F)cc(F)c3)nc2)c(=O)c1Br	103	
CC(Cc1ccc(Cl)cc1)Nc1nc(NC2CCCC2)nc(N2CCC(C#N)(c3ccccc3)CC2)n1 (configuration not stated)	715	
CC(=O)Nc1ccc(CN(Cc2ccc(C)cc2)Cc2cccc(Oc3ccccc3)c2)cc1	1050	
COc1ccc(-c2ccc(NC(=O)c3ccc(C#N)cc3)cc2)cc1CN1CCCC1	873	
Clc1ccc(-n2cnc3c(Nc4ccc(Oc5ccccc5)cc4)ncnc32)cc1Cl	747	
COc1ccc2nccc([C@@H](O)CN3CCC(NC(=O)C(c4cc5ccccc5s4)N4CCN(c5ccccc5OC)CC4)CC3)c2c1 (some centres not stated)	160	
FC(F)(F)c1ccc2[nH]c(-c3cccc(-c4ccc(CNCCc5ccncc5)cc4)c3)nc2c1	98.9	
CCCCCCCCCCNCC(O)c1ccc(O)c(C(=O)OC)c1 (configuration not stated)	717	
CNC(=O)c1cnc(Nc2ccc(N3CCN(C)CC3)c(C)c2)nc1NC	869	
COc1ccc2ccccc2c1CCCCN1CCN(CC(c2ccc(F)cc2)N2CCC2)CC1 (configuration not stated)	759	
Nc1nc2c(ncn2COC2COP(=O)(O)OC2)c(=O)[nH]1 (configuration not stated)	454	
c1ccc(Oc2ccc(Nc3ccnc(Nc4ccc(CN5CCOCC5)cc4)n3)cc2)cc1	941	
CN(c1cc(NC(=O)c2ccc(F)cc2)ccn1)C1CCN(Cc2cccc(O)c2)CC1	922	
CCN(CC)CCCCNc1cc(-c2[nH]c(C(C)(C)C)nc2-c2ccc3cc(OC)ccc3c2)ccn1	531	
O=C(CNC(=O)c1ccc(O)cc1)Nc1cccc(-c2cccc(-c3nc4cc(C(F)(F)F)ccc4[nH]3)c2)c1	1040	
COc1cc(CNC[C@@H](O)[C@H](Cc2ccccc2)NC(=O)c2cc(OC(C)C)cc(N3CCCS3(=O)=O)c2)cc(OC)c1	798	
COc1cc(Cc2cnc(NCCN3CCNCC3)nc2N)ccc1OCc1ccc(C(F)(F)F)cc1	922	
CCc1c[nH]c2c(N3CCCS3(=O)=O)cc(C(=O)N[C@@H](Cc3ccccc3)[C@H](O)CNC(C)(C)c3cccc(C(F)(F)F)c3)cc12	228	
C=CCOc1ccc(CNC2CCN(Cc3ccccc3)CC2)cc1Br	1420	
COc1ccc(Nc2nccc(NCC(O)c3cccc(C(F)(F)F)c3)n2)cc1 (configuration not stated)	886	

SMILES	XC50 (Plasmodium falciparum, 3D7) [nM]	XC50 [nM]
FC(F)(F)c1ccc2[nH]c(-c3cccc(-c4cccc(CNCc5cnn(-c6ccccc6)n5)c4)c3)nc2c1	552	
CC(=O)Nc1ccc(CN2CCC(CNC(=O)c3cc(-c4cccc(C(F)(F)F)c4)cs3)C2)cc1 (configuration not stated)	1100	
COc1ccc(C(=O)NCCCCN2CCC(c3ccc4c(c3OC)CCCC4)CC2)cc1-c1ccc(C(F)(F)F)cc1	755	
O=S(=O)(NCCN1CCCC1)c1ccc(-c2cccc(CNCc3ccc(F)cc3)c2)cc1F	787	
N#CC1(c2ccccc2)CCN(c2nc(NCCCN3CCCC3=O)nc(N3CCCC4CCCCC43)n2)CC1 (configuration not stated)	864	
COc1ccccc1N1CCN(CCCCN(C(=O)Nc2cccc(Cl)c2)C(=O)Nc2cccc(Cl)c2)CC1	707	
O=C(/C=C/c1ccccc1Cl)NC1CCC(CN2CCC(c3c[nH]c4ccccc34)CC2)CC1 (configuration not stated)	603	849
O=C1Nc2cccc3c2C1(CCCCCN1CC=C(c2c[nH]c4ccccc24)CC1)CCC3 (configuration not stated)	740	
N=C1N=C(N)NCN1OCc1ccc(Cl)c(Cl)c1	194	
COc1ccc(CC(C)NCC(O)c2ccc(Cl)c(Cl)c2)cc1 (configuration not stated)	717	
FC(F)(F)c1ccc2[nH]c(-c3ccc(-c4ccc(CN5CCN(c6ccncc6)CC5)cc4)cc3)nc2c1	62.4	
Cc1nnsc1C(=O)Nc1cccc(-c2ccc(-c3nc4cc(C(F)(F)F)ccc4[nH]3)cc2)c1	314	
COc1cc2nccc(Nc3ccc(OCc4ccccc4)cc3)c2cc1OC	203	
Cc1cccc2nc(-c3ccc(-c4ccc(NC(=O)Nc5ccc(Cl)c(Cl)c5)cc4)cc3)[nH]c12	826	
CC=CC(=O)N1CCN(c2nccc(-c3ccc(C(C)(C)C)cc3)n2)CC1	1080	
N#Cc1ccc2c(c1)CCN(CCC1CCC(NC(=O)/C=C/c3c[nH]c4c(Br)cccc34)CC1)CC2 (configuration not stated)	379	
O=C(NC1CCC(N2CCCC(OCc3ccccc3)C2)CC1)c1cc2ccccc2[nH]1 (configuration not stated)	1210	
Cc1cc(N[C@@H](C)C(=O)Nc2ccccc2)nc(NCCc2ccc(F)cc2)n1	1110	
CN(C)C(=O)CN1CCN(c2ncnc(N3CCc4c([nH]c5ccccc45)[C@@H]3c3ccc4c(c3)CCO4)n2)CC1	871	
OCC1CCN(Cc2ccc(-c3ccc(-c4nc5cc(F)ccc5[nH]4)s3)cc2)CC1	850	
COc1cccc(C(=O)Nc2ccc(-c3nc4ccccc4[nH]3)cc2)c1	802	
COc1ccccc1-n1ccnc1SCC(=O)Nc1cccc(C(F)(F)F)c1	160	
Cc1cccc(Cn2c(C(N)=O)nn(-c3ccc([N+](=O)[O-])cc3C#N)c2=S)c1	731	
CCCCCc1cc(O)c2c(c1)OC(C)(C)CC2C1=CCN(Cc2cccnc2)CC1 (configuration not stated)	991	

SMILES	XC50 (Plasmodium falciparum, 3D7) [nM]	XC50 [nM]
N=c1c2c(n(Cc3ccccc3)c3c1CCC3)CCCC2	867	
COCCNCc1ccc(-c2ccc(CNC3CCN(Cc4ccccc4)CC3)cc2)cc1	669	
Cc1ccc(NS(=O)(=O)c2ccc(-c3ccccc3)cc2)c(Cn2cnc(N3CCCNCC3)cc2=O)c1	859	
COc1ccc(NC(=O)/C=C/c2cc(F)cc(C(F)(F)F)c2)cc1OCCN(C(C)C)C(C)C	669	
COc1ccc(Nc2nccc(NCCNC(=O)Nc3cc(C)ccc3C)n2)cc1	1050	
CN1CCc2cc(NS(=O)(=O)c3ccc(-c4ccc(Cl)s4)cc3)c(N3CCCCC3)cc2CC1	727	
Nc1nc(N)c2c(Cl)c(CNc3cccc(C(=O)O)c3)ccc2n1	8.88	
O=C(Nc1ccc(S(=O)(=O)N2CCCCC2)cc1)c1cc(-c2ccccc2O)n[nH]1	846	
O=C1CCCN1CCCNCc1ccc(-c2ccc(-c3nc4cc(C(F)(F)F)ccc4[nH]3)cc2)cc1	583	
Cc1nc(-c2ccc(-c3ccc(C(=O)Nc4ccc(C(C)C)c(OCCN(C)C)c4)cc3)c(C)c2)no1	870	
CCCNCc1ccc(-c2ccc(CN(CCOC)C(=O)CCC(=O)c3ccc(OC)c(F)c3)cc2)nc1	683	
CCCCCCNC(=O)C1Cc2c([nH]c3cc(Cl)ccc23)C2(CCN(Cc3ccccc3)CC2)N1 (configuration not stated)	903	
CON=C1CCC(Cn2ccnc2)(c2ccc(Cl)cc2Cl)CC1 (configuration not stated)	875	
COc1cc(Cc2cnc(N)nc2N)ccc1OCC(=O)Nc1ccc(C)cc1	478	
Cn1cnc(CCNC(=O)c2ccc(-c3cccc(-c4nc5cc(C(F)(F)F)ccc5[nH]4)c3)cc2)c1	726	
CC(=O)Nc1cc(C(=O)Nc2ccc(C3=NCCN3)cc2)ccc1C(=O)Nc1ccc(C2=NCCN2)cc1	133	
Nc1nc(N)c2c(Cc3ccccc3)cccc2n1	828	
COc1ccccc1NC(=O)Nc1cccc(-c2cccc(-c3nc4cccc(C)c4[nH]3)c2)c1	95.7	
Cc1cccc2nc(-c3ccc(-c4ccc(C(=O)NCCN5CCCC5)cc4)cc3)[nH]c12	519	
NC(=O)c1ccccc1OCC(=O)Nc1cccc(-c2ccc(-c3nc4cc(C(F)(F)F)ccc4[nH]3)cc2)c1	647	
CCOc1ccc(C2CCN(CCN3CCC(NC(=O)c4ccc(-c5ccc(C(F)(F)F)cc5)cc4)CC3)CC2)c(OCC2CC2)c1	826	
CCN1CCN(CC(O)CNC(=O)Nc2ccc(Cl)cc2)CC1 (configuration not stated)	150	
CC(C)CNCc1ccc(-c2cccc(CN(C(=O)NCCc3ccccc3)C3CCN(Cc4ccccc4)CC3)c2)cc1	579	
Cc1ccc(Nc2ccnc3cc(-c4nccs4)ccc23)cc1C(O)c1ccccc1 (configuration not stated)	735	

SMILES	XC50 (Plasmodium falciparum, 3D7) [nM]	XC50 [nM]
COc1ccc(CCn2c(=N)c(C(=O)NCc3ccc(C)cc3)cc3c(=O)n4ccccc4nc32)cc1	1130	
CC(C)C[C@@H](C(=O)N[C@@H](CCCCNC(=O)OCc1ccccc1)C(=O)Nc1nccs1)[C@H](C)N(O)C=O	190	
CC(C)[C@@H](C(=O)NCc1cccc(C(F)(F)F)c1)N1C(=O)CCC1C(=O)Nc1ccc([N+](=O)[O-])cc1 (some centres not stated)	934	
CN1CCN(CCCNc2ncc3c(-c4ccc(NC(=O)Nc5cc(C(F)(F)F)ccc5F)c(F)c4)nn(C)c3n2)CC1	859	
NC(=O)c1cnc2cc(-c3ccncc3)cc(Nc3ccc(NC(=O)C4CCCCC4)cc3)c2c1	232	
CC1CC(C)CN(S(=O)(=O)c2cc(C(=O)Nc3cccc([N+](=O)[O-])c3)ccc2Br)C1 (configuration not stated)	898	
O=C(Nc1cc(Cl)cc(Cl)c1)Nc1ccccc1C(=O)NC1CCCCC1	749	
C=CCC(C(=O)Nc1ccnc2ccc(OC)cc12)C1CCN(CCCCCCC)CC1 (configuration not stated)	242	
Cc1cccc(C)c1N1CCN(C2CCC(NC(=O)/C=C/c3ccccc3)CC2)CC1 (configuration not stated)	1180	
COc1ccc(Cn2c(SCc3ccc(C)cc3)nc3cc(OC)c(OC)cc3c2=N)cc1Cl	977	
Cc1nc(-c2cccc(NCc3ccccc3)c2)[nH]c1C	863	
COc1cc(Cc2cnc(N)nc2N)c2ccsc2c1OC	1070	
N=C(N)NC(=O)Nc1ccc(Cl)c(C(F)(F)F)c1	594	
COC(=O)c1cc(/C(C)=N/Nc2nc3ccccc3[nH]2)ccc1O	676	
Nc1ncc(-c2ccc3[nH]ccc3c2)c2ccc(-c3ccncc3)cc12	542	
Cc1ncc([N+](=O)[O-])n1CCOC(=O)NC(NCC1COc2ccccc2O1)C(Cl)(Cl)Cl (configuration not stated)	223	
Cc1ccc(O)cc1Nc1c(C(N)=O)cnc2ccc(-c3cncs3)cc12	670	
CCC/C=C/c1c(CNCCCNc2cc(=O)c3ccccc3[nH]2)sc(CC)c1Br	889	
S=C(Nc1cccc(Cl)c1)NC1CCN(c2ccnc3cc(Cl)ccc23)C1 (configuration not stated)	154	
CC1(C)NC(N)=NC(=N)N1OCCCOc1cccc(Cl)c1	3.2	
Cc1cc(-c2cccc(CNC3CCN(C)CC3)c2)ccc1S(=O)(=O)NC1CCC1	731	
CN(C)c1ccc(-c2cscc2C(=O)NC2CCCN(Cc3cccnc3)C2)cc1 (configuration not stated)	859	
CC(C)(C)CN1C(=O)C(c2ccccc2)(c2ccccc2)N=C1N	515	
Cc1nc2nc(N)nc(N)c2c(C)c1Cc1cccs1	777	
